Laboratory results reported in patent publication US20190284136A1, “INDOLINE DERIVATIVES” (ViiV HEALTHCARE UK LIMITED, priority 2016, published 2019).

tested on: HIV; assay: Table 1 IC50 of the examples (assay method not given; patent concerns inhibiting HIV replication); format: cell-based; conditions: Human immunodeficiency virus 1

| SMILES | IC50 [nM] |
| --- | --- |
| Cc1cc2c(c(-c3cc(F)c4c(c3C)CCCO4)c1[C@H](OC(C)(C)C)C(=O)O)CCN2C(=O)c1ccc(C(F)(F)F)nc1 (atropisomer, axis not shown) [Example 172, (S)-2-(tert-butoxy)-2-((R)-4-(8-fluoro-5-methylchroman-6-yl)-6-methyl-1-(6-(trifluoromethyl)nicotinoyl)indolin-5-yl)acetic acid] | 6 |
| Cc1cc2c(c(-c3cc(F)c4c(c3C)CCCO4)c1[C@H](OC(C)(C)C)C(=O)O)CCN2C(=O)c1cccnc1C (atropisomer, axis not shown) [Example 173, (S)-2-(tert-butoxy)-2-((R)-4-(8-fluoro-5-methylchroman-6-yl)-6-methyl-1-(2-methylnicotinoyl)indolin-5-yl)acetic acid] | 13 |
| COc1cc(C(=O)N2CCc3c2cc(C)c([C@H](OC(C)(C)C)C(=O)O)c3-c2cc(F)c3c(c2C)CCCO3)cc(F)c1F (atropisomer, axis not shown) [Example 174, (S)-2-(tert-Butoxy)-2-((R)-1-(3,4-Difluoro-5-methoxybenzoyl)-4-(8-fluoro-5-methylchroman-6-yl)-6-methylindolin-5-yl)acetic acid] | 6 |
| Cc1cc2c(c(-c3cc(F)c4c(c3C)CCCO4)c1[C@H](OC(C)(C)C)C(=O)O)CCN2C(=O)C(=O)c1ccccc1 (atropisomer, axis not shown) [Example 175, (S)-2-(tert-Butoxy)-2-((R)-4-(8-fluoro-5-methylchroman-6-yl)-6-methyl-1-(2-oxo-2-phenylacetyl)indolin-5-yl)acetic acid] | 90 |
| COc1cc(C(=O)N2CCc3c2cc(C)c([C@H](OC(C)(C)C)C(=O)O)c3-c2cc(F)c3c(c2C)CCCO3)ccc1C(F)(F)F (atropisomer, axis not shown) [Example 176, (S)-2-(tert-Butoxy)-2-((R)-4-(8-Fluoro-5-methylchroman-6-yl)-1-(3-methoxy-4-(trifluoromethyl)benzoyl)-6-methylindolin-5-yl)acetic acid] | 5 |
| Cc1cc2c(c(-c3cc(F)c4c(c3C)CCCO4)c1[C@H](OC(C)(C)C)C(=O)O)CCN2C(=O)c1cccc2c1CCO2 (atropisomer, axis not shown) [Example 177, (S)-2-(tert-Butoxy)-2-((R)-1-(2,3-dihydrobenzofuran-4-carbonyl)-4-(8-fluoro-5-methylchroman-6-yl)-6-methylindolin-5-yl)acetic acid] | 2 |
| Cc1cc2c(c(-c3cc(F)c4c(c3C)CCCO4)c1[C@H](OC(C)(C)C)C(=O)O)CCN2C(=O)c1ccc2c(c1)OCC2 (atropisomer, axis not shown) [Example 178, (S)-2-(tert-Butoxy)-2-((R)-1-(2,3-Dihydrobenzofuran-6-carbonyl)-4-(8-fluoro-5-methylchroman-6-yl)-6-methylindolin-5-yl)acetic acid] | 4 |
| Cc1nc2cccc(C(=O)N3CCc4c3cc(C)c([C@H](OC(C)(C)C)C(=O)O)c4-c3cc(F)c4c(c3C)CCCO4)c2o1 (atropisomer, axis not shown) [Example 179, (S)-2-(tert-Butoxy)-2-((R)-4-(8-Fluoro-5-methylchroman-6-yl)-6-methyl-1-(2-methylbenzo[d]oxazole-7-carbonyl)indolin-5-yl)acetic acid] | 12 |
| COc1c(C(=O)N2CCc3c2cc(C)c([C@H](OC(C)(C)C)C(=O)O)c3-c2cc(F)c3c(c2C)CCCO3)cccc1C(F)(F)F (atropisomer, axis not shown) [Example 180, (S)-2-(tert-Butoxy)-2-((R)-4-(8-Fluoro-5-methylchroman-6-yl)-1-(2-methoxy-3-(trifluoromethyl)benzoyl)-6-methylindolin-5-yl)acetic acid] | 5 |
| COc1c(F)cccc1C(=O)N1CCc2c1cc(C)c([C@H](OC(C)(C)C)C(=O)O)c2-c1ccc2c(c1C)CCCO2 (atropisomer, axis not shown) [Example 181, (S)-2-(tert-Butoxy)-2-((R)-1-(3-fluoro-2-methoxybenzoyl)-6-methyl-4-(5-methylchroman-6-yl)indolin-5-yl)acetic acid] | 2 |
| Cc1cc2c(c(-c3ccc4c(c3C)CCCO4)c1[C@H](OC(C)(C)C)C(=O)O)CCN2C(=O)c1cccc2c1OCCO2 (atropisomer, axis not shown) [Example 182, (S)-2-(tert-Butoxy)-2-((R)-1-(2,3-dihydrobenzo[b][1,4]dioxine-5-carbonyl)-6-methyl-4-(5-methylchroman-6-yl)indolin-5-yl)acetic acid] | 5 |
| COc1cc(Cl)ccc1C(=O)N1CCc2c1cc(C)c([C@H](OC(C)(C)C)C(=O)O)c2-c1ccc2c(c1C)CCCO2 (atropisomer, axis not shown) [Example 183, (S)-2-(tert-Butoxy)-2-((R)-1-(4-chloro-2-methoxybenzoyl)-6-methyl-4-(5-methylchroman-6-yl)indolin-5-yl)acetic acid] | 4 |
| COc1cc(C(=O)N2CCc3c2cc(C)c([C@H](OC(C)(C)C)C(=O)O)c3-c2ccc3c(c2C)CCCO3)ccc1C (atropisomer, axis not shown) [Example 184, (S)-2-(tert-Butoxy)-2-((R)-1-(3-methoxy-4-methylbenzoyl)-6-methyl-4-(5-methylchroman-6-yl)indolin-5-yl)acetic acid] | 4 |
| COc1ccc(C(=O)N2CCc3c2cc(C)c([C@H](OC(C)(C)C)C(=O)O)c3-c2ccc3c(c2C)CCCO3)c(OC)c1 (atropisomer, axis not shown) [Example 185, (S)-2-(tert-Butoxy)-2-((R)-1-(2,4-dimethoxybenzoyl)-6-methyl-4-(5-methylchroman-6-yl)indolin-5-yl)acetic acid] | 9 |
| COc1ccc(C(=O)N2CCc3c2cc(C)c([C@H](OC(C)(C)C)C(=O)O)c3-c2ccc3c(c2C)CCCO3)cc1OC (atropisomer, axis not shown) [Example 186, (S)-2-(tert-Butoxy)-2-((R)-1-(3,4-dimethoxybenzoyl)-6-methyl-4-(5-methylchroman-6-yl)indolin-5-yl)acetic acid] | 6 |
| COc1ccc(C(=O)N2CCc3c2cc(C)c([C@H](OC(C)(C)C)C(=O)O)c3-c2ccc3c(c2C)CCCO3)cc1F (atropisomer, axis not shown) [Example 187, (S)-2-(tert-Butoxy)-2-((R)-1-(3-fluoro-4-methoxybenzoyl)-6-methyl-4-(5-methylchroman-6-yl)indolin-5-yl)acetic acid] | 6 |
| Cc1ccccc1C(=O)N1CCc2c1cc(C)c([C@H](OC(C)(C)C)C(=O)O)c2-c1ccc2c(c1C)CCCO2 (atropisomer, axis not shown) [Example 188, (S)-2-(tert-Butoxy)-2-((R)-6-methyl-1-(2-methylbenzoyl)-4-(5-methylchroman-6-yl)indolin-5-yl)acetic acid] | 5 |
| Cc1cc2c(c(-c3ccc4c(c3C)CCCO4)c1[C@H](OC(C)(C)C)C(=O)O)CCN2C(=O)c1cc(F)cc(F)c1 (atropisomer, axis not shown) [Example 189, (S)-2-(tert-Butoxy)-2-((R)-1-(3,5-difluorobenzoyl)-6-methyl-4-(5-methylchroman-6-yl)indolin-5-yl)acetic acid] | 6 |
| COc1ccc(C(=O)N2CCc3c2cc(C)c([C@H](OC(C)(C)C)C(=O)O)c3-c2ccc3c(c2C)CCCO3)cc1C (atropisomer, axis not shown) [Example 190, (S)-2-(tert-Butoxy)-2-((R)-1-(4-methoxy-3-methylbenzoyl)-6-methyl-4-(5-methylchroman-6-yl)indolin-5-yl)acetic acid] | 124 |
| Cc1ccc(C(=O)N2CCc3c2cc(C)c([C@H](OC(C)(C)C)C(=O)O)c3-c2ccc3c(c2C)CCCO3)cn1 (atropisomer, axis not shown) [Example 191, (S)-2-(tert-Butoxy)-2-((R)-6-methyl-4-(5-methylchroman-6-yl)-1-(6-methylnicotinoyl)indolin-5-yl)acetic acid] | 868 |
| COc1ccc(C(=O)N2CCc3c2cc(C)c([C@H](OC(C)(C)C)C(=O)O)c3-c2cc(OC)c3c(c2C)CCCO3)cc1C (atropisomer, axis not shown) [Example 192, (S)-2-(tert-Butoxy)-2-((R)-1-(4-methoxy-3-methylbenzoyl)-4-(8-methoxy-5-methylchroman-6-yl)-6-methylindolin-5-yl)acetic acid] | 5 |
| COc1cc(-c2c3c(cc(C)c2[C@H](OC(C)(C)C)C(=O)O)N(C(=O)c2ccc(C)nc2)CC3)c(C)c2c1OCCC2 (atropisomer, axis not shown) [Example 193, (S)-2-(tert-Butoxy)-2-((R)-4-(8-methoxy-5-methylchroman-6-yl)-6-methyl-1-(6-methylnicotinoyl)indolin-5-yl)acetic acid] | 9 |
| COc1ccc(C(=O)N2CCc3c2cc(C)c([C@H](OC(C)(C)C)C(=O)O)c3-c2cc(C)c3c(c2C)CCCO3)cc1C (atropisomer, axis not shown) [Example 194, (S)-2-(tert-Butoxy)-2-((R)-4-(5,8-dimethylchroman-6-yl)-1-(4-methoxy-3-methylbenzoyl)-6-methylindolin-5-yl)acetic acid] | 43 |
| Cc1ccc(C(=O)N2CCc3c2cc(C)c([C@H](OC(C)(C)C)C(=O)O)c3-c2cc(C)c3c(c2C)CCCO3)cn1 (atropisomer, axis not shown) [Example 195, (S)-2-(tert-Butoxy)-2-((R)-4-(5,8-dimethylchroman-6-yl)-6-methyl-1-(6-methylnicotinoyl)indolin-5-yl)acetic acid] | 121 |
| COc1ccc(C(=O)N2CCc3c2cc(C)c([C@H](OC(C)(C)C)C(=O)O)c3-c2cc(C(F)(F)F)c3c(c2C)CCCO3)cc1C (atropisomer, axis not shown) [Example 196, (S)-2-(tert-Butoxy)-2-((R)-1-(4-methoxy-3-methylbenzoyl)-6-methyl-4-(5-methyl-8-(trifluoromethyl)chroman-6-yl)indolin-5-yl)acetic acid] | 359 |
| Cc1ccc(C(=O)N2CCc3c2cc(C)c([C@H](OC(C)(C)C)C(=O)O)c3-c2cc(C(F)(F)F)c3c(c2C)CCCO3)cn1 (atropisomer, axis not shown) [Example 197, (S)-2-(tert-Butoxy)-2-((R)-6-methyl-4-(5-methyl-8-(trifluoromethyl)chroman-6-yl)-1-(6-methylnicotinoyl)indolin-5-yl)acetic acid] | 712 |
